Experimental data from patent US12329823B2 (The Scripps Research Institute, priority 2021, dated 2025).
Where two headings read alike, the source gives them in different places.

Legend:
[1] = biological target: cynomolgous monkey GIPR; test: In vitro potency, cynomolgous monkey GIPR activation (receptor-mediated cAMP synthesis); assay type: cell-based; conditions: Table 12; read-out: In Vitro Potency GIPR EC50, Cyno
[2] = biological target: T1, dog GIPR (Canis lupus familiaris, UniProt A0A8I3MPG1); test: In vitro potency, dog GIPR activation (receptor-mediated cAMP synthesis); assay type: cell-based
T1 sequence (A0A8I3MPG1 24-449): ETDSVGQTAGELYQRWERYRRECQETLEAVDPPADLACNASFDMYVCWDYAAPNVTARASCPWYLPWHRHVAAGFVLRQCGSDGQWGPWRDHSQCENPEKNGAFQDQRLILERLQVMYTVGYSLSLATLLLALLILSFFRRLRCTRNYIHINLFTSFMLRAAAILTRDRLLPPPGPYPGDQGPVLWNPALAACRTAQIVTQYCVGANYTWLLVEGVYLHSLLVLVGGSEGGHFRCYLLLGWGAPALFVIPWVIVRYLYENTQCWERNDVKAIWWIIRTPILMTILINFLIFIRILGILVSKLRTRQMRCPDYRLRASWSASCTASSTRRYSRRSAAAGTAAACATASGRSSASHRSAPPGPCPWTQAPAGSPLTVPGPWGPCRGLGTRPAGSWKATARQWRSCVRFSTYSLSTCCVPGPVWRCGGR
Procedure: GLP-1R-CRE or HEK293-GIPR-CRE cells were seeded in 384-well plates at a density of 5000 cells per well and cultured for 18 h in DMEM with 10% FBS at 37° C. and 5% CO2. Cells were treated with peptides in a dose dependent manner for 24 h, and receptor activation was reported by luminescence intensities, using One-Glo (Promega, WI) luciferase reagent following manufacturer's instruction. The EC50 of each peptide was determined using GraphPad Prism 6 software (GraphPad, San Diego, CA). Results are depicted in FIGS. 6A-6B, FIGS. 7A-7B, FIGS. 8A-8B, FIGS. 9A-9B, and Tables 7-12. Measurements of peptide conjugate potency were expressed as half maximal effective concentration (EC50) values.

[3] = biological target: T2, human GIPR (Homo sapiens, UniProt P48546); test: In vitro receptor activation reporter assay (CRE-Luc, HEK293-GIPR-CRE cells; receptor-mediated cAMP synthesis); assay type: cell-based
T2 construct: expressed in transfected cells; host or cells: HEK293 (CRE-HEK293, HEK293-GIPR-CRE)
T2 sequence (P48546 22-466): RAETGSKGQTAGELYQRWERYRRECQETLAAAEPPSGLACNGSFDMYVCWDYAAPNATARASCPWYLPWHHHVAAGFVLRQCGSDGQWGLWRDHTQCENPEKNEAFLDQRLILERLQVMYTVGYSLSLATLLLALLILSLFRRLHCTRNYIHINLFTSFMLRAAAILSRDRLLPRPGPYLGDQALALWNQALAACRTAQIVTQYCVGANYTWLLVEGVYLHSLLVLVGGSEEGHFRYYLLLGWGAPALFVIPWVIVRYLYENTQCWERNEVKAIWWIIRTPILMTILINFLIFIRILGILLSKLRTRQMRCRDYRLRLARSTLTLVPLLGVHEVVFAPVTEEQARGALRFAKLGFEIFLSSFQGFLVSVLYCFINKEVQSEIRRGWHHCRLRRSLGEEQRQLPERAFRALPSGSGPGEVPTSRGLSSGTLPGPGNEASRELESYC

[4] = Plasma stability, 24 h incubation in mouse plasma (LC-MS); assay type: in vitro ADME
Procedure: (§1) To investigate the stability of the conjugates in mouse, cyno monkey, dog, and human plasma, conjugate mCMD307 was incubated in plasma for 24 h (Table 13). At certain time intervals a sample of plasma was taken and plasma proteins precipitated. Samples were analyzed using LC-MS.

[5] = in vitro; assay type: in vitro ADME, cyno monkey; conditions: monkey, plasma
Procedure: as §1

[6] = in vitro; assay type: in vitro ADME; conditions: plasma
Procedure: as §1

[7] = assay type: in vivo, mouse
Procedure: […]. Peptide dissolved in PBS (pH 8.2) was administered via i.v. or s.c. route into CD1 mice ([…]). Blood samples were collected at the indicated time points and analyzed by in vitro GLP-1R activity assay. The assay was performed in triplicate. Pharmacokinetic analyses were determined by noncompartmental analysis with WinNonLin.
[…]. It is also noteworthy that although our focus for half-life extension was on the serum-binding ability of the stapled peptide, there may be a combination of effects, for example self-assembly and depoting at the injection site, that led to the delayed onset of Cmax and the extended half-life.
CHOK1 cells stably overexpressed human GLP-1R or GIPR (20 μL of 5000 cells per well) were seeded in a white solid 384 well plate covered with metal lid and incubated overnight. On day 2, the culture medium was replaced by fresh medium containing no FBS (for 0% FBS group). Cells were treated with 5 μL peptide in 12-point dose response, in culture medium with 0.5 mM IBMX in triplicate for 30 min at 37° C., 5% CO2. cAMP dynamic 2 kit from Cisbio was used to detect cAMP level. Briefly, 25 μL of cAMP detection reagent (1:1:38 of cAMP-d2, Cryptate conjugate, lysis buffer) per well was added and incubated at room temperature for 1 h. For cell negative control wells, cAMP detection reagent without d2 was added. […] Animals Animal care and experimental procedures were approved by the Institutional Animal Care and Use Committee (IACUC) of Calibr at the Scripps Research Institute, strictly following the NIH guidelines for humane treatment of animals. Pharmacokinetics of peptides in mice Female CD-1 mice (n=4 per group) from Charles River Laboratory were fasted overnight and administered 100 μL of each peptide in phosphate buffered saline by intravenous (i.v.) or subcutaneous (s.c.) route. Food was provided to mice after blood collection at 3 h time point. Blood was collected into heparin tubes and centrifuged at 3,000×g for 15 min. The resulting plasma were then stored at −80° C. for peptide concentration determination. The concentrations of peptides in plasma at each time point were determined by in vitro cell based activity assay. Briefly, HEK293-GLP-1R-CRE cells were treated with plasma samples at different time points (5-point dose response, starting from 1:10 to 1:100 dilution of each plasma sample) and incubated for 16 h in DMEM with 10% FBS at 37° C. with 5% CO2, and the firefly luciferase activity was then measured. Simultaneously, the same peptides were used to obtain standard curves and parameters for Bottom, Top, EC50, and Hill Slope. Relative luciferase unit (RLU) for each plasma sample was used to calculate the peptide concentrations in plasma (nmol/L), using parameters derived from the standard curve: (RLU=Bottom+(Top−Bottom)/(1+10^(Log EC50−Conc.)×Hill Slope)) Peptide concentrations in plasma were obtained and plotted against time points to obtain in vivo half-life of each peptide, using WinNonLin Phoenix software (Pharsight Corp, St. Louis, MO). Oral glucose tolerance test (OGTT) Female Charles River CD-1 mice were fasted overnight and then administrated 150 μL of each peptide in PBS (pH=8.2) by i.v. or s.c. route. […]. Body weight and food intake were monitored daily throughout the study. At the end of the experiment, mice were sacrificed, and visceral fat mass was weighed. Collected plasma was used for cholesterol level determination according to the manufacturer's guide (cholesterol assay kit, Abcam, Cambridge, England) and triglyceride level using a triglyceride colorimetric assay kit (Cayman chemical, Ann Arbor, Michigan). Oil red staining Frozen tissue sections of liver were cut at 10 μm and air dried onto the slides. After fixation in 10% formalin for 5 min, the slides were briefly washed with running tap water for 10 min, followed by rinsing with 60% isopropanol. Subsequently, oil red 0 working solution (0.3% oil red 0) was used to stain lipid for 15 min. […]

[8] = Acute oral glucose tolerance test (OGTT) in wild-type mice, 2 h and 96 h post injection; assay type: in vivo, mouse; conditions: 96 h after administration; 10 nmol/kg s.c.
[9] = High-fat-diet-induced obesity (DIO) mouse model, chronic administration; assay type: in vivo; conditions: DIO mice
[10] = biological target: T3, human GLP-1R (Homo sapiens, UniProt P43220); test: In vitro receptor activation reporter assay (CRE-Luc, HEK293-GLP-1R-CRE cells; receptor-mediated cAMP synthesis); assay type: cell-based; parameters: expressed in transfected cells; host or cells: HEK293 (CRE-HEK293, HEK293-GLP-1R-CRE); conditions: read-out: EC50 GLP1R
T3 sequence (P43220 24-463): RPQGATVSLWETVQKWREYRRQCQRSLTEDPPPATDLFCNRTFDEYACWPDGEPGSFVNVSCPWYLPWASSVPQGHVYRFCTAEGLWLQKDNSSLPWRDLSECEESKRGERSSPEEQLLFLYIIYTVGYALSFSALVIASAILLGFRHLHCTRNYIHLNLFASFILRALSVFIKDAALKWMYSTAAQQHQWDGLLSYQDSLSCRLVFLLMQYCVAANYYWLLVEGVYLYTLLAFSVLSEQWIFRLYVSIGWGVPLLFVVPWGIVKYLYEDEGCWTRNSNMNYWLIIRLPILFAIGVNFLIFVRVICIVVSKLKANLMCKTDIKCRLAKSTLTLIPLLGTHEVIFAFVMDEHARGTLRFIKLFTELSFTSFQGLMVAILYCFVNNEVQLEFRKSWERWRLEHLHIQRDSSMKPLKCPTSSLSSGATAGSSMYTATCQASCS
Procedure: HEK293 cells were infected with lentivirus encoding firefly luciferase gene under the control of cAMP responsive element (CRE) promoter (Qiagen, The Netherlands) and then were selected using 1 μg mL^−1 puromycin (Life Technologies, Carlsbad) for 1 week. The surviving cells (referred to as CRE-HEK293) were expanded and then transfected with a G418 selective mammalian expression plasmid encoding human GLP-1R or GIPR. In brief, GLP-1R or GIPR plasmid was transfected into CRE-HEK293 cells using Lipofectamine 2000 and selected with 400 μg mL^−1 Geneticin (Life Technologies, Carlsbad, CA). Single colony stable cell line overexpressing CRE-luciferase and GLP-1R or GIPR (HEK293-GLP-1R-CRE or HEK293-GIPR-CRE) was then established for in vitro activity assay.
HEK293 cells were infected with lentivirus encoding firefly luciferase gene under the control of cAMP responsive element (CRE) promoter (Qiagen, The Netherlands) and then were selected using 1 μg/mL puromycin (Life Technologies, Carlsbad) for 1 week. The surviving cells (referred to as CRE-HEK293) were expanded and then transfected with a G418 selective mammalian expression plasmid encoding human GLP-1R. In brief, GLP-1R plasmid was transfected into CRE-HEK293 cells using Lipofectamine 2000 and selected with 400 μg/mL Geneticin (Life Technologies, Carlsbad, CA). Single colony stable cell line overexpressing CRE-luciferase and GLP1R was then established for in vitro activity assay.

[11] = In vivo oral glucose tolerance test (OGTT) 12 h after a single S.C. dose; parameters: species or system mouse; conditions: 10 nmol/kg S.C.; 12 h before glucose
Procedure: Mice were fasted overnight prior to the oral glucose tolerance test (OGTT), and then dosed with peptide. After 12 h, 1 g of glucose solution per kg body weight was administered orally, and mouse tail blood glucose levels were measured before (0 min) and after glucose challenge for 90 minutes (with measurements at 15, 30, 60 and 90 minutes) (FIG. 16). The data were compared using the unpaired Student's t test. Where appropriate, data were compared using repeated measures or one-way analysis of variance, followed by the Student-Newman-Keuls post hoc test. Calculations for […] (mg/dL*min) were also analyzed and graphed in FIG. 16. […]. […].

[12] = biological target: T2, human GIPR; conditions: literature, in words; cited from earlier work
[13] = biological target: T3, human GLP-1R; conditions: literature, in words; cited from earlier work

For CC[C@H](C)[C@H](NC(=O)[C@H](CO)NC(=O)[C@H](Cc1ccc(O)cc1)NC(=O)[C@H](CC(=O)O)NC(=O)[C@H](CO)NC(=O)[C@@H](NC(=O)[C@H](Cc1ccccc1)NC(=O)[C@@H](NC(=O)CNC(=O)[C@H](CCC(=O)O)NC(=O)[C@H](C)NC(=O)[C@@H](N)Cc1ccc(O)cc1)[C@@H](C)O)[C@@H](C)CC)C(=O)N[C@@H](C)C(=O)N[C@@H](CCSC)C(=O)N[C@@H](CC(=O)O)C(=O)N[C@@H](CCCCN)C(=O)N[C@H](C(=O)N[C@@H](Cc1c[nH]cn1)C(=O)N[C@@H](CCC(N)=O)C(=O)N[C@@H](CCC(N)=O)C(=O)N[C@@H](CC(=O)O)C(=O)N[C@@H](Cc1ccccc1)C(=O)N[C@H](C(=O)N[C@@H](CC(N)=O)C(=O)N[C@@H](Cc1c[nH]c2ccccc12)C(=O)N[C@@H](CC(C)C)C(=O)N[C@@H](CC(C)C)C(=O)N[C@@H](C)C(=O)N[C@@H](CCC(N)=O)C(=O)N[C@@H](CCCCN)C(=O)NCC(=O)N[C@@H](CCCCN)C(=O)N[C@@H](CCCCN)C(=O)N[C@@H](CC(N)=O)C(=O)N[C@@H](CC(=O)O)C(=O)N[C@@H](Cc1c[nH]c2ccccc12)C(=O)N[C@@H](CCCCN)C(=O)N[C@@H](Cc1c[nH]cn1)C(=O)N[C@@H](CC(N)=O)C(=O)N[C@H](C(=O)N[C@H](C(=O)N[C@@H](CCC(N)=O)C(=O)O)[C@@H](C)O)[C@@H](C)CC)C(C)C)[C@@H](C)CC [hGIP, reference compound], the EC50 [1] was 690 pM and the EC50 [2] was 700 pM.

In the case of CC[C@H](C)[C@H](NC(=O)[C@H](CO)NC(=O)[C@H](Cc1ccc(O)cc1)NC(=O)[C@H](CC(=O)O)NC(=O)[C@H](CO)NC(=O)[C@@H](NC(=O)[C@H](Cc1ccccc1)NC(=O)[C@@H](NC(=O)CNC(=O)[C@H](CCC(=O)O)NC(=O)C(C)(C)NC(=O)[C@@H](N)Cc1ccc(O)cc1)[C@@H](C)O)[C@@H](C)O)C(=O)N[C@@H](Cc1ccc(O)cc1)C(=O)N[C@H]1CCCCNC(=O)CN(C(=O)CCNC(=O)CCOCCOCCOCCNC(=O)CCCCCCCCCCCCCCCCC(=O)O)CC(=O)NCCCC[C@@H](C(=O)N[C@@H](Cc2ccccc2)C(=O)N[C@H](C(=O)N[C@@H](CC(N)=O)C(=O)N[C@@H](Cc2c[nH]c3ccccc23)C(=O)N[C@@H](CC(C)C)C(=O)N[C@@H](CC(C)C)C(=O)N[C@@H](C)C(=O)NCC(=O)NCC(=O)N2CCC[C@H]2C(=O)N[C@@H](CO)C(=O)N[C@@H](CO)C(=O)NCC(=O)N[C@@H](C)C(=O)N2CCC[C@H]2C(=O)N2CCC[C@H]2C(=O)N2CCC[C@H]2C(=O)N[C@@H](CO)C(N)=O)C(C)C)NC(=O)C(C)(C)NC(=O)[C@H](C)NC(=O)[C@H](C)NC(=O)[C@H](CCC(N)=O)NC(=O)[C@H](CCCCN)NC(=O)[C@H](CC(=O)O)NC1=O [mCMD307, YAibEGT-FTSDY-SIYXD-KQAAAib-XFVNW-LLAGG-PSSGA-PPPS-NH2 (where each X is K) (SEQ ID NO: 39)], the EC50 ([3]; Table 8, read-out: EC50 GIPR) is reported as 10 pM, the EC50 ([3]; unnumbered table, run 02/19, read-out: EC50 GIPR 02/19) is reported as 40 pM and the remaining at 24 h [4] is reported as 53%. For the same molecule, the remaining at 24 h [5] was 87%, the remaining at 24 h ([6]; dog) was 92% and the remaining at 24 h ([6]; human) was 92%. It also gave an AUC0-last ([7]; Table 6, plasma, route not given) of 59200 ± 6810 ng·h/mL, a Tmax ([7]; Table 6, plasma, route not stated in table (s.c. 1 mg kg-1 / i.v. 0.3 mg kg-1 per FIG. 3)) of 2.33 ± 1.16 h and a Cmax ([7]; mouse, in vivo) of 4710 ± 659 ng/mL. It also gave a Vd ([7]; mouse, in vivo) of 0.18 ± 0.05 L/kg, a clearance ([7]; mouse, in vivo) of 0.28 ± 0.04 mL/min/kg and a half-life ([7]; mouse, in vivo) of 11.6 ± 0.85 h. For the same molecule, the fasted glucose levels [8] was “significantly reduce fasted glucose levels”, the “glucose handling (OGTT) versus vehicle” value [8] was “more significant improvements in handling glucose” and the “body weight, food intake” value ([9]; 40 μg/kg, FIG. 5A) was “significantly reduced body weight food intake”. The fed blood glucose ([9]; day 21, versus PBS, FIG. 5B) was “significantly lower than compared to PBS-treated DIO mice”, the body weight ([9]; s.c., FIG. 5A) was “steady reduction in body weight” and the “fasting blood glucose levels” value ([9]; s.c., FIG. 5A) was “steady reduction”. The EC50 ([10]; Table 7) was 10 pM and the EC50 ([10]; Table 8) was 30 pM.

In the case of Tirzepatide, the EC50 [1] is given as 80 pM, the “effects on glucose tolerance” value [11] is given as “indistinguishable effects on glucose tolerance” and the “binding affinity to human GIPR versus hGIP” value [12] is given as “comparable affinity than that of hGIP”. For the same molecule, the “GLP-1 receptor binding versus native hGLP-1” value [13] was “approximately five times lower GLP-1 receptor binding than native hGLP-1”.
